Earlier results in patent publication US11564963B2, “Topical compositions, process of large-scale manufacture, and method of use” (Progeneron, LLC, priority 2017, dated 2023).
Values after ≈ are worked out from the molar mass of the structure shown.

Assays:
[1] = rats
[2] = system: Gram-negative bacteria and fungi
[3] = 20° C.

**Q.** Which LD50 [1] does the source give for OCc1ccccc1 [Benzyl Alcohol] here?
**A.** The LD50 was 1.2 gm/kg.

**Q.** Which “concentrations required for Gram-negative bacteria and fungi” value [2] does the source give for [H]/N=C(\N/C(=N/[H])NCCCCCCNC(=N)NC(=N)Nc1ccc(Cl)cc1)Nc1ccc(Cl)cc1 [Chlorhexidine] here?
**A.** Its value is 10 to 73 µg/mL.

**Q.** With NC(=O)c1cccnc1 [Niacinamide] as the molecule, how does the pKa read?
**A.** The pKa was “about 3.35”.

**Q.** And the solubility in water [3]?
**A.** Its solubility in water is 691 mg/mL (≈ 5660 mM).
